# Assay results as given in patent US8889902B2, “Acetylsalicylic acid salts” (priority 2009, dated 2014).
# Several values for one entry are separate records, joined by “and”; a condition that tells them apart may be missing. Identical values can stand only once. Marks after values point to notes of the source that are not given here.
# Tests used:
# CRP = CRP levels in blood, carrageneen inflammation model; format: in vivo, rats; conditions: for CRP: 5 h after carrageneen; for CRP increase %: carrageneen control = 100
# Experimental: To evaluate the intensity of the inflammation process the CRP levels were determined by standard method on analyzer ? INTEGRA 400+ ? at the end of experiment (5 hours after injection of carrageneen).
# tail bleeding = experiment: Tail bleeding time during thrombosis experiment; format: in vivo, rats; conditions: for Tail bleeding time, %: control = 100
# Experimental: Additionally during the thrombosis experiment rat tail bleeding time was measured. The tail was transected 5 mm from the tip with scalpel and the tail was immediately immersed into 37° C. warm isotonic saline until termination of bleeding was noted. Termination of bleeding was defined as the time of complete stop of bleeding with no recurrence of bleeding within the next 30 s.
# [1] = test system: hyperthermia induced by intramuscular injection of pyrogenal; experiment: Antipyretic activity, pyrogenal hyperthermia (curative mode); format: in vivo, rats
# Experimental: The antipyretic effect of test substances in therapeutic (curative) mode was investigated on 48 rats with body mass 182-205 g, with hyperthermia induction by injecting pyrogenal in dose 100 μg (Shwarz G Y, Syubaev R D, Vedomosti NCEG lekarstvennyh sredstv MZ RF 2000; 1:44-50 (Rus). Test substances were given p.o. 2 hours after injection of pyrogenal immediately after the recording of elevated body temperature. Rectal temperature was measured by electric thermometer TERMO before the i.m. injection of pyrogenal (baseline temperature), at the peak of hyperthermia (pyrogenal control) and 30 min. after treatment with test substance, i.e., 2½ hours after the injection of pyrogenal. Ambient temperature in laboratory was kept at 20-22° C.
# [2] = test system: abdominal constrictions in writhing test model; experiment: Mouse writhing test (acetic acid i.p.); format: in vivo, mice; conditions: for No. of constrictions: 10 min observation
# Experimental: In investigating the analgesic, anti-inflammatory and antipyretic effects of MASA methods widely used in evaluation of NSAIDs were employed. Mongrel white laboratory mice and Wistar rats were used in experiments. Animals were kept in groups of 7-8 in adequate cages in climatized rooms at 22±1° C., relative humidity 60±5% and 12/12-hour light/darkness cycle with free access to feed and water.
# Aqueous solutions of test substances were prepared ex tempore. In each experimental series a control group was used that received an identical volume of water p.o.
# Nociceptive reaction was evaluated by chemical irritation method—writhing test (Charaborty A et al, Indian J of Pharmacology 2004; 36(3):148-150). Animals received i.p. 0.25 ml of 0.75% aqueous acetic acid solution: After the injection animals were placed separately in special boxes and observed for 10 minutes. The number of abdominal constrictions was registered. Analgesic activity was manifested by reduction of the number of abdominal constrictions in the 10 minutes period. Test substances were introduced 30 min before the irritating agent. The level of analgesia was expressed as analgesic index calculated as follows: A=(Cc−Ct)/Cc·100%, where A—Analgesic index Cc—number of contractions in control group, Ct—number of contractions in the test group.
# carrageneen paw oedema = experiment: Carrageneen oedema, preventive mode; format: in vivo, rats; conditions: preventive 6 times, 4 h
# Experimental: The […] oedema was investigated by established method ([…], Patol Fiziol Eksp Ter, 2002(2):24-7 (Rus) on 42 rats with body mass of 178-220 g: […] The prevention index was calculated as indicated in previous section.
# [3] = test system: FeCl3 induced carotid artery thrombosis; experiment: FeCl3 induced carotid artery thrombosis, time till occlusion; format: in vivo, Wistar rats; conditions: for Time till occlusion, %: control = 100
# Source text: We chose an experimental thrombosis model based on rat arterial thrombosis induced by FeCl3 (Kurz K et al, Thromb Res 1990, 60:269-280. Wang X, Xu L, Thromb Res 2005,115:95-100). Tissue damage initiated by iron-mediated chemical oxidation predisposes the injured area to platelet adherence and aggregation followed by coagulation activation and fibrin deposition. Male Wistar rats with mass 350-420 g were used in experiments. Animals were kept in groups of 7-8 in adequate cages in climatized room at 22±1° C., relative humidity 60±5% and 12/12-hour light/darkness cycle with free access to feed and water. All experiments were carried out in accordance with the European Community Council's Directive of 24 Nov. 1986 (86/609/EEC) relative to experimental animal care. All efforts were made to minimize animal suffering and to reduce the number of animals used. Rats were randomly divided into various experimental groups, each consisting of not less than seven animals. The vehicle or test compound MD (25 mg/kg), NA (25 mg/kg), MASA (10 mg/kg), ASA (5 mg/kg) and combination MD+NA (25+25 mg/kg), MASA+NA (10+25 mg/kg) and ASA+NA (5+25 mg/kg) was administered by oral route 2 h before the initiation of thrombosis. Parallel experiments were conducted to compare the effects of a single dose of test substance (given 2 h before the initiation of thrombosis) and repeated doses (once daily for 3 days). […] Rats were anaesthetized with pentobarbital sodium (50 mg/kg, i.p. and 10 mg/kg/h) and were placed on a heat controlled operating table throughout the experiment to maintain a body temperature of 37° C. One of the carotid arteries was exposed by cervical incision, separated from the adherent tissue, vagus nerve, and a flow probe (electromagnetic blood flow meter MFV 1200, Nicon Kohden, Japan) was placed on the exposed segment of common carotid artery to record the blood flow. After a stabilization period of 15 min, thrombosis was induced by topically applying (in contact with the adventitial surface of vessel) two pieces (2×1 mm) of Whatman filter paper, soaked in 15% solution of FeCl3. Thrombosis time of carotid artery was recorded as time taken for the complete cessation of the blood flow and has been reported as time till occlusion (TTO).
# [4] = test system: serum lipid levels (C, HDL, LDL, TG); experiment: Acute hyperlipidemia model (Triton WR1339); format: in vivo, Wistar rats; conditions: serum 24 h
# Experimental: Male Wistar rats with body mass of 250-270 g were used. Animals were held in groups of 6-8 in climatized rooms at 22±1° C., relative humidity 60±5%, and 12/12-hour light/dark cycle with free access to water and feed. […] The solution of test substances or water was introduced to control and TR group animals p.o. one hour before and 20 hours after the introduction of TR as described below.
# Blood for biochemical analysis was collected on the next day (24 hours after the injection of TR) by heart punction under ether narcosis. Serum was separated by centrifugation and analyzed for total cholesterol, HDL, LDL and TG levels by commercial kits.
# [5] = 5 mg/kg/d p.o., repeated, 3 days
# [6] = 10 mg/kg/d p.o., repeated, 3 days
structure (smiles),measurement,setting,value
"CC(=O)Oc1ccccc1C(=O)O [ASA, acetylsalicylic acid]",CRP,CRP; 100 mg/kg,0.20 ± 0.018 mg/L
same,CRP increase %,CRP; 100 mg/kg,50%
same,Tail bleeding time,"tail bleeding; 5 mg/kg p.o., single dose",13.8 ± 3.27 min
same,"Tail bleeding time, %","tail bleeding; 5 mg/kg p.o., single dose",155%
same,Tail bleeding time,tail bleeding; [5],17.8 ± 3.17^1 min
same,"Tail bleeding time, %",tail bleeding; [5],207%
same,Rectal temperature at 30 minutes after treatment,[1]; 50 mg/kg p.o. 2 h after pyrogenal,36.51 ± 0.15*^$ ° C.
same,Analgesic index,[2]; 50 mg/kg p.o.,7.1
same,Animals with positive reaction/total number,[2]; 50 mg/kg p.o. 30 min before acetic acid,6/8
same,No. of constrictions,[2]; 50 mg/kg p.o.,5.75 ± 1.32***^$$$
same,Reduction in % (oedema),carrageneen paw oedema; 50 mg/kg p.o.,70%
same,Volume of paw after injection of carrageneen,carrageneen paw oedema; 50 mg/kg p.o.,1.55 ± 0.04 mL
same,Time till occlusion,"[3]; 5 mg/kg p.o., single dose 2 h before",35.2 ± 3.02^1 min
same,"Time till occlusion, %","[3]; 5 mg/kg p.o., single dose",144%
same,Time till occlusion,[3]; [5],40.9 ± 3.25^1 min
same,"Time till occlusion, %",[3]; [5],162%
same,C,[4]; 45 mg/kg p.o. 1 h before and 20 h after TR 250 mg/kg,381.0 ± 30.3 mg/dL
same,HDL,"[4]; 45 mg/kg p.o., TR 250 mg/kg",62.8 ± 10.9 mg/dL
same,LDL,"[4]; 45 mg/kg p.o., TR 250 mg/kg",307.4 ± 37.8 mg/dL
same,TG,"[4]; 45 mg/kg p.o., TR 250 mg/kg",973 ± 82.7 mg/dL
same,C,"[4]; 90 mg/kg p.o., TR 250 mg/kg",288.1 ± 23.5 mg/dL
same,HDL,"[4]; 90 mg/kg p.o., TR 250 mg/kg",60.0 ± 7.4 mg/dL
same,LDL,"[4]; 90 mg/kg p.o., TR 250 mg/kg",219.1 ± 23.9 mg/dL
same,TG,"[4]; 90 mg/kg p.o., TR 250 mg/kg",791 ± 73.9 mg/dL
"CC(=O)Oc1ccccc1C(=O)[O-].C[N+](C)(C)NCCC(=O)O [MASA, 3-(trimethylammonioamino)propanoate Acetylsalicylic Acid Addition Salt]",CRP,CRP; 150 mg/kg,0.19 ± 0.009^#$ mg/l
same,CRP increase %,CRP; 150 mg/kg,33%
same,CRP,CRP; 300 mg/kg,0.21 ± 0.014 mg/L
same,CRP increase %,CRP; 300 mg/kg,67%
same,Tail bleeding time,"tail bleeding; 10 mg/kg p.o., single dose",12.1 ± 2.20 min
same,"Tail bleeding time, %","tail bleeding; 10 mg/kg p.o., single dose",136%
same,Tail bleeding time,tail bleeding; [6],13.1 ± 2.63 min
same,"Tail bleeding time, %",tail bleeding; [6],152%
same,Rectal temperature at 30 minutes after treatment,[1]; 75 mg/kg p.o. 2 h after pyrogenal,36.90 ± 0.07 °C
same,Rectal temperature at 30 minutes after treatment,[1]; 150 mg/kg p.o. 2 h after pyrogenal,36.75 ± 0.09^#$ ° C.
same,Rectal temperature at 30 minutes after treatment,[1]; 300 mg/kg p.o. 2 h after pyrogenal,36.40 ± 0.11*^$$% ° C.
same,Analgesic index,[2]; 75 mg/kg p.o.,4.5
same,Animals with positive reaction/total number,[2]; 75 mg/kg p.o. 30 min before acetic acid,8/8
same,No. of constrictions,[2]; 75 mg/kg p.o.,12.13 ± 0.61**^$$
same,Analgesic index,[2]; 150 mg/kg p.o.,5.2
same,Animals with positive reaction/total number,[2]; 150 mg/kg p.o. 30 min before acetic acid,7/8
same,No. of constrictions,[2]; 150 mg/kg p.o.,10.63 ± 1.10**^$$
same,Analgesic index,[2]; 300 mg/kg p.o.,7.3
same,Animals with positive reaction/total number,[2]; 300 mg/kg p.o. 30 min before acetic acid,5/8
same,No. of constrictions,[2]; 300 mg/kg p.o.,6.00 ± 1.39***^$$$
same,Reduction in % (oedema),carrageneen paw oedema; 150 mg/kg p.o.,94%
same,Volume of paw after injection of carrageneen,carrageneen paw oedema; 150 mg/kg p.o.,1.40 ± 0.09**^$ ml
same,Reduction in % (oedema),carrageneen paw oedema; 300 mg/kg p.o.,86%
same,Volume of paw after injection of carrageneen,carrageneen paw oedema; 300 mg/kg p.o.,1.41 ± 0.04**^$ ml
same,Time till occlusion,"[3]; 10 mg/kg p.o., single dose 2 h before",41.7 ± 3.95^2 min and 41.7 ± 3.95^2b min
same,"Time till occlusion, %","[3]; 10 mg/kg p.o., single dose",171%
same,Time till occlusion,[3]; [6],48.4 ± 4.35^2 min
same,"Time till occlusion, %",[3]; [6],191%
same,C,"[4]; 75 mg/kg p.o., TR 250 mg/kg",341.9 ± 16.3 mg/dL
same,HDL,"[4]; 75 mg/kg p.o., TR 250 mg/kg",68.1 ± 8.7 mg/dL
same,LDL,"[4]; 75 mg/kg p.o., TR 250 mg/kg",270.1 ± 12.8 mg/dL
same,TG,"[4]; 75 mg/kg p.o., TR 250 mg/kg",861 ± 105.7 mg/dL
same,C,"[4]; 150 mg/kg p.o., TR 250 mg/kg",249.6 ± 22.2**^$& mg/dl and 249.6 ± 22.2**^$ mg/dl and 249.6 ± 22.2**^& mg/dl
same,HDL,"[4]; 150 mg/kg p.o., TR 250 mg/kg",58.2 ± 8.1 mg/dL
same,LDL,"[4]; 150 mg/kg p.o., TR 250 mg/kg",182.4 ± 19.6**^$& mg/dl and 182.4 ± 19.6**^$ mg/dl and 182.4 ± 19.6**^& mg/dl
same,TG,"[4]; 150 mg/kg p.o., TR 250 mg/kg",668 ± 104.4**^$& mg/dl and 668 ± 70.9**^$ mg/dl and 668 ± 70.9**^& mg/dl
same,C,"[4]; 300 mg/kg p.o., TR 250 mg/kg",219.0 ± 16.7**^$#& mg/dl
same,HDL,"[4]; 300 mg/kg p.o., TR 250 mg/kg",56.3 ± 8.6 mg/dL
same,LDL,"[4]; 300 mg/kg p.o., TR 250 mg/kg",158.6 ± 19.4**^$#& mg/dl
same,TG,"[4]; 300 mg/kg p.o., TR 250 mg/kg",548 ± 73.2***^&$# mg/dl
